Measurements from patent US20250304576A1 (Cancer Research Technology Limited, priority 2022, published 2025).

What was measured:
Recombinant IKKα = target: T1, Recombinant IKKα (Homo sapiens, UniProt O15111); experiment: DELFIA IKKα kinase assay (apparent Ki, Cheng-Prusoff); assay type: biochemical
T1 construct: purchased Millipore, Dundee, UK
T1 sequence (O15111 1-745): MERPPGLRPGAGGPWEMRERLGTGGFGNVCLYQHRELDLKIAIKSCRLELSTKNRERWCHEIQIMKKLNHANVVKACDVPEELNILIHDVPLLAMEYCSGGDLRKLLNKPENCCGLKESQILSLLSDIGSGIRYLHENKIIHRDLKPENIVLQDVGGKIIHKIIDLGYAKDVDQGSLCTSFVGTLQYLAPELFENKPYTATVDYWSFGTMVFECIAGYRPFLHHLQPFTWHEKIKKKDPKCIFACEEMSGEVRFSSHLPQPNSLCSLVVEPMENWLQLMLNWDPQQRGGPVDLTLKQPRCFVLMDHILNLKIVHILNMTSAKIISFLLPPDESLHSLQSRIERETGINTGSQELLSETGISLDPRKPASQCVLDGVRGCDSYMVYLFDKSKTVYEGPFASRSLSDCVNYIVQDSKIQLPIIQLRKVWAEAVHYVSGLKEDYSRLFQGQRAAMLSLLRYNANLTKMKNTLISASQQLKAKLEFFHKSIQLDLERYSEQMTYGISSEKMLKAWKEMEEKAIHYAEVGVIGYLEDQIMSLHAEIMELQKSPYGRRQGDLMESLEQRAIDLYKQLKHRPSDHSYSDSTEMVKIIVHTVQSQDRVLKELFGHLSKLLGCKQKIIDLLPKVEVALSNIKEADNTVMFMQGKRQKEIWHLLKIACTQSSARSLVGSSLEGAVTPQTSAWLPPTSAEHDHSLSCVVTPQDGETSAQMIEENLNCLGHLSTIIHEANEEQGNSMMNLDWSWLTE
Summary of the method: (§1)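 Recombinant IKKα or IKKβ (37 nM) with 0.375 μM biotinylated IκB-α (Ser32) peptide and 40 μM ATP in 40 mM Tris-HCl pH 7.5, 20 mM MgCl2, 60 min at 30° C. Phospho-substrate captured on streptavidin and detected by anti-phospho-IκB-α plus europium anti-mouse IgG time-resolved fluorescence; apparent Ki via Cheng-Prusoff.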

Recombinant IKKβ = target: T2, Recombinant IKKβ (Homo sapiens, UniProt O14920); experiment: DELFIA IKKβ kinase assay (apparent Ki, Cheng-Prusoff); assay type: biochemical
T2 construct: purchased Millipore, Dundee, UK
T2 sequence (O14920 1-756): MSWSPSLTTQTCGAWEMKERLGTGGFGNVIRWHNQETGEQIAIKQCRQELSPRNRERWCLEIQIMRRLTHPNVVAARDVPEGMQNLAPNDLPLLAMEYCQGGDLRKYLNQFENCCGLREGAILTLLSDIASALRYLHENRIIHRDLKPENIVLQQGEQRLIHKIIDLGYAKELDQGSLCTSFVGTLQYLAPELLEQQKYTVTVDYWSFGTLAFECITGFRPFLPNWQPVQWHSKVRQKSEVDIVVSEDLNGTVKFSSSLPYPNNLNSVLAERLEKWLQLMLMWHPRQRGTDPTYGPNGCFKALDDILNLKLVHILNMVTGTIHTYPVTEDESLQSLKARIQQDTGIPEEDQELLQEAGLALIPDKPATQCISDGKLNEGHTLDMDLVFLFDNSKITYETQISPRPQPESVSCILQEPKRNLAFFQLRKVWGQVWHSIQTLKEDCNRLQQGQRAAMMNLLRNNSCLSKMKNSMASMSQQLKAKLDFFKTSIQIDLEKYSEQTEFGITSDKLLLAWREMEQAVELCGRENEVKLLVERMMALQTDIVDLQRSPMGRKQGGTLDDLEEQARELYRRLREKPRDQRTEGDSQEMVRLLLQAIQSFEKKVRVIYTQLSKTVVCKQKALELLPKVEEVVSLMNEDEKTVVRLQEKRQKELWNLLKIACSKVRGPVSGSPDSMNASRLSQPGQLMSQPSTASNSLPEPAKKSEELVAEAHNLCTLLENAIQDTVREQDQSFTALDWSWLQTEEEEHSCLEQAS
Summary of the method: as §1

[1] = non-italicised figure: DELFIA assay
[2] = DELFIA assay (first line of an example)

| Ki (Recombinant IKKα; [1]) [µM] | Ki (Recombinant IKKβ; [1]) [µM] | Ki (Recombinant IKKα; [2]) [µM] | Ki (Recombinant IKKβ; [2]) [µM] | SMILES |
| --- | --- | --- | --- | --- |
| 0.032 | 0.88 | – | – | Nc1nccc(-c2ccc3[nH]nc(N)c3c2)c1C#CCCN1CCCCC1 [Example 93, 5-(2-Amino-3-(4-(piperidin-1-yl)but-1-yn-1-yl)pyridin-4-yl)-1H-indazol-3-amine] |
| – | – | 0.011 | 0.507 | Nc1n[nH]c2ccc(-c3ccnc4[nH]c(CCCN5CCCCC5)cc34)cc12 [Example 269, 5-(2-(3-(Piperidin-1-yl)propyl)-1H-pyrrolo[2,3-b]pyridin-4-yl)-1H-indazol-3-amine] |
| 0.35 | 1.15 | – | – | Nc1nccc(-c2ccc3[nH]nc(N)c3c2)c1C#CCCCN1CCOCC1 [Example 96, 5-(2-Amino-3-(5-morpholinopent-1-yn-1-yl)pyridin-4-yl)-1H-indazol-3-amine] |
| 0.01 | 0.152 | – | – | Nc1nccc(-c2ccc3[nH]nc(N)c3c2)c1C#Cc1ccccc1 [Example 75, 5-(2-Amino-3-(phenylethynyl)pyridine-4-yl)-1H-indazol-3-amine] |
| – | – | 0.062 | 1.39 | CC(C)(C)C#Cc1cc(-c2ccnc3[nH]ccc23)cc2c(N)n[nH]c12 [Example 201, 7-(3,3-Dimethylbut-1-yn-1-yl)-5-(1H-pyrrolo[2,3-b]pyridin-4-yl)-1H-indazol-3-amine] |
| – | – | 0.022 | 0.277 | Nc1n[nH]c2ccc(-c3ccnc4[nH]c(CN5CCOCC5)cc34)cc12 [Example 262, 5-(2-(Morpholinomethyl)-1H-pyrrolo[2,3-b]pyridine-4-yl)-1H-indazol-3-amine] |
| – | – | 0.091 | 2.51 | Nc1n[nH]c2ccc(-c3ccnc4[nH]c(CN5CCCCCC5)cc34)cc12 [Example 265, 5-(2-(Azepan-1-ylmethyl)-1H-pyrrolo[2,3-b]pyridine-4-yl)-1H-indazol-3-amine] |
| – | – | 0.038 | 0.461 | Nc1n[nH]c2ccc(-c3ccnc4[nH]c(CC5CCCCC5)cc34)cc12 [Example 221, 5-(2-(Cyclohexylmethyl)-1H-pyrrolo[2,3-b]pyridin-4-yl)-1H-indazol-3-amine] |
| 0.006 | 0.268 | – | – | CC(C)(C)C#Cc1c(-c2ccc3[nH]nc(N)c3c2)ccnc1N [Example 72, 5-(2-Amino-3-(3,3-dimethylbut-1-yn-1-yl)pyridine-4-yl)-1H-indazol-3-amine] |
| – | – | 0.026 | 0.452 | Nc1n[nH]c2c(C#CC3CCCC3)cc(-c3ccnc4[nH]ccc34)cc12 [Example 203, 7-(Cyclopentylethynyl)-5-(1H-pyrrolo[2,3-b]pyridin-4-yl)-1H-indazol-3-amine] |
| – | – | 0.011 | 0.251 | Nc1n[nH]c2ccc(-c3ccnc4[nH]c(CCN5CCOCC5)cc34)cc12 [Example 268, 5-(2-(2-Morpholinoethyl)-1H-pyrrolo[2,3-b]pyridin-4-yl)-1H-indazol-3-amine] |
| – | – | 0.011 | 0.126 | Nc1n[nH]c2ccc(-c3ccnc4[nH]c(CCCN5CCOCC5)cc34)cc12 [Example 271, 5-(2-(3-Morpholinopropyl)-1H-pyrrolo[2,3-b]pyridin-4-yl)-1H-indazlo-3-amine] |
| – | – | 0.062 | 2.43 | CN1CCN(Cc2cc3c(-c4ccc5[nH]nc(N)c5c4)ccnc3[nH]2)CC1 [Example 263, 5-(2-((4-Methylpiperazin-1-yl)methyl)-1H-pyrrolo[2,3-b]pyridine-4-yl)-1H-indazol-3-amine] |
| – | – | 0.027 | 0.272 | Nc1n[nH]c2ccc(-c3ccnc4[nH]c(C5CCCCO5)cc34)cc12 (centres unmarked) [Example 229, 5-(2-(Tetrahydro-2H-pyran-2-yl)-1H-pyrrolo[2,3-b]pyridin-4-yl)-1H-indazol-3-amine] |
| 0.007 | 0.325 | – | – | CC(C)(N)C#Cc1c(-c2ccc3[nH]nc(N)c3c2)ccnc1N [Example 92, 5-(2-Amino-3-(3-amino-3-methylbut-1-yn-1-yl)pyridin-4-yl)-1H-indazol-3-amine] |

| SMILES | Ki (Recombinant IKKα; [1]) [µM] | Ki (Recombinant IKKβ; [1]) [µM] | Ki (Recombinant IKKα; [2]) [µM] | Ki (Recombinant IKKβ; [2]) [µM] |
| --- | --- | --- | --- | --- |
| CC(C)(C)OCc1cc2c(-c3ccc4[nH]nc(N)c4c3)ccnc2[nH]1 [Example 227, 5-(2-(tert-Butoxymethyl)-1H-pyrrolo[2,3-b]pyridin-4-yl)-1H-indazol-3-amine] | – | – | 0.029 | 0.754 |
